US20250171495A1, “MUTLI-TARGETED SERINE PROTEASE INHIBITORS FOR TREATMENT OF CANCER AND VIRAL INFECTION” (Washington University, priority 2023, published 2025)

Columns and labels:
Assay type in all cases: biochemical
matriptase = target: T1, matriptase (Homo sapiens, UniProt Q9Y5Y6); test: HyCoSuL P4-P2 substrate specificity screening, matriptase; settings: for P2 Position Substrate Activity for matriptase (percent substrate cleavage/proteolysis): residue fixed at P2 position; for P3 Position Various Amino Acids Substrate Activity, matriptase (percent substrate cleavage/proteolysis): residue fixed at P3 position of substrate library; for P4 Position Various Amino Acids Substrate Activity, matriptase (percent substrate proteolysis/cleavage): residue fixed at P4 position of substrate library
T1 sequence (Q9Y5Y6 1-855): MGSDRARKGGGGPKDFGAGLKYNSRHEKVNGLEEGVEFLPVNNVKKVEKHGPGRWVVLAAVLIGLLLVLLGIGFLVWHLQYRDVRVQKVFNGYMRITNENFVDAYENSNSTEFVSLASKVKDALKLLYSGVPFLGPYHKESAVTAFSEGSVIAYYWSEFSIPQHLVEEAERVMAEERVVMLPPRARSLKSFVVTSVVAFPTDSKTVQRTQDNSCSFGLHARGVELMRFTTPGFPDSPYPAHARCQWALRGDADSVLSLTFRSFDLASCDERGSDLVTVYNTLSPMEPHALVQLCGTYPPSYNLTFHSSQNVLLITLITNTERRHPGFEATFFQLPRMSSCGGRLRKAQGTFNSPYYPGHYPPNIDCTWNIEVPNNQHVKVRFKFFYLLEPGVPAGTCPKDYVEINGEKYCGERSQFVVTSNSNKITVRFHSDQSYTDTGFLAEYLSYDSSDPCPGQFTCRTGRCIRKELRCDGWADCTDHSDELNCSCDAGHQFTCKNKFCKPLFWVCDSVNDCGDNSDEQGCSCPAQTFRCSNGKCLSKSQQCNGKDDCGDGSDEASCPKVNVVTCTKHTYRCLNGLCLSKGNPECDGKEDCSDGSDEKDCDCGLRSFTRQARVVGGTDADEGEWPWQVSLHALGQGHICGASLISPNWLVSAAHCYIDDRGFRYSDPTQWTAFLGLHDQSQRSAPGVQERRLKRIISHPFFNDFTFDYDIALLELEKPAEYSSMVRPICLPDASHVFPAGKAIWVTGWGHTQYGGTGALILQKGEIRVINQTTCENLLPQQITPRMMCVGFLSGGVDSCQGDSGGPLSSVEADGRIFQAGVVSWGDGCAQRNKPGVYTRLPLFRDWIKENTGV

TMPRSS2 = TMPRSS2 (Homo sapiens, UniProt O15393); test: PS-SCL / HyCoSuL substrate specificity screening, TMPRSS2; settings: for P2 Position Substrate Activity for TMPRSS2 (percent substrate cleavage/proteolysis): residue fixed at P2 position of substrate library; for P4 Position Various Amino Acids Substrate Activity, TMPRSS2 (percent substrate proteolysis/cleavage): residue fixed at P4 position of substrate library
Sequence of TMPRSS2 (O15393 whole entry): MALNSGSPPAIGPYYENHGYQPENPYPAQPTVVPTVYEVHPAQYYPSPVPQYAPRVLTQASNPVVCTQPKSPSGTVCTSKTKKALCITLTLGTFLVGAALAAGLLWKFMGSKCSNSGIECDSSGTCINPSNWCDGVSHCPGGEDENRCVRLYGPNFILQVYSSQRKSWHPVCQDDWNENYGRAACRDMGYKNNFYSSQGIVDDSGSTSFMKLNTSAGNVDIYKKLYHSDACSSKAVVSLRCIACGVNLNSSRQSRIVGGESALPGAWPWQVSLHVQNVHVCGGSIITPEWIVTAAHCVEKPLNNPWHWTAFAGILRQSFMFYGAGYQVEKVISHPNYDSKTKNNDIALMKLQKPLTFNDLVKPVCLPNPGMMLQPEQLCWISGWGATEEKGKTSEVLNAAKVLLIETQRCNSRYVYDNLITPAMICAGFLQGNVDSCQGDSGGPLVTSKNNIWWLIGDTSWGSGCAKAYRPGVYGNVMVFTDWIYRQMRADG

HGFA = target: T2, HGFA (Homo sapiens, UniProt Q04756); test: HyCoSuL P4-P2 substrate specificity screening, HGFA; settings: for P2 Position Substrate Activity for HGFA (percent substrate cleavage/proteolysis): residue fixed at P2 position; for P3 Position Various Amino Acids Substrate Activity, HGFA (percent substrate cleavage/proteolysis): residue fixed at P3 position of substrate library; for P4 Position Various Amino Acids Substrate Activity, HGFA (percent substrate proteolysis/cleavage): residue fixed at P4 position of substrate library
T2 sequence (Q04756 373-655): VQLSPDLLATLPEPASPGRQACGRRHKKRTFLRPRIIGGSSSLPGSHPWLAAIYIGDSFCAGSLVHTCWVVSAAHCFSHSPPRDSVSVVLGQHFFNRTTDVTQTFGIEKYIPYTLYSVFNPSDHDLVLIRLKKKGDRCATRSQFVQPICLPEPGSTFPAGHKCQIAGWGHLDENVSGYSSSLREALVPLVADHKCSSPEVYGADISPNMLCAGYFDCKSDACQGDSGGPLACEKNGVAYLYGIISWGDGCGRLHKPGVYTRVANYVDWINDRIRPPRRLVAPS

hepsin = target: T3, hepsin (Homo sapiens, UniProt P05981); test: HyCoSuL P4-P2 substrate specificity screening, hepsin; settings: for P2 Position Substrate Activity for hepsin (percent substrate cleavage/proteolysis): residue fixed at P2 position; for P3 Position Various Amino Acids Substrate Activity, hepsin (percent substrate cleavage/proteolysis): residue fixed at P3 position of substrate library; for P4 Position Various Amino Acids Substrate Activity, hepsin (percent substrate proteolysis/cleavage): residue fixed at P4 position of substrate library
T3 construct: purchased R&D Systems 4776-SE-010
T3 sequence (P05981 163-417 limits assumed): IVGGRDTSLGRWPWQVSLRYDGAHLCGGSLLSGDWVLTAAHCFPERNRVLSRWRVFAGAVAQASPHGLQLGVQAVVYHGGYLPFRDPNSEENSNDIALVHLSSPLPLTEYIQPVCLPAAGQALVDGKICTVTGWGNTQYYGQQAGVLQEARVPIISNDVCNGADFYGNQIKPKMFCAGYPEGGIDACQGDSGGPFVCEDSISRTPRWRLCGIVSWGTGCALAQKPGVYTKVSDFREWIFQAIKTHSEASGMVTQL
T3 sequence (P05981 1-162 partner limits assumed): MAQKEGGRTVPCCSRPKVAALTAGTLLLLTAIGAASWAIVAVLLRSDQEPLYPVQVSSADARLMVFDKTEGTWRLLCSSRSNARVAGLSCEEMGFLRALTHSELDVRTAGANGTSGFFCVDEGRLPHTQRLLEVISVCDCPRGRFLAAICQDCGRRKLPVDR

[1] = P1-Arg HyCoSuL, 100 μM, best recognized amino acid set to 100%
[2] = best recognized amino acid set to 100%
[3] = residue fixed at P3 position of substrate library
[4] = residue fixed at P3 position, P1-Arg HyCoSuL, 100 μM, best recognized amino acid set to 100%

Molecule	P2 Position Substrate Activity for matriptase (percent substrate cleavage/proteolysis) (matriptase; [1]) [%]	P3 Position Various Amino Acids Substrate Activity, matriptase (percent substrate cleavage/proteolysis) (matriptase) [%]	P4 Position Various Amino Acids Substrate Activity, matriptase (percent substrate proteolysis/cleavage) (matriptase) [%]	P2 Position Substrate Activity for TMPRSS2 (percent substrate cleavage/proteolysis) (TMPRSS2; [2]) [%]	P3 Position Various Amino Acids Substrate Activity, TMPRSS2 (percent substrate cleavage/proteolysis) (TMPRSS2; [3]) [%]	P4 Position Various Amino Acids Substrate Activity, TMPRSS2 (percent substrate proteolysis/cleavage) (TMPRSS2) [%]	P2 Position Substrate Activity for HGFA (percent substrate cleavage/proteolysis) (HGFA; [1]) [%]	P3 Position Various Amino Acids Substrate Activity, HGFA (percent substrate cleavage/proteolysis) (HGFA) [%]	P4 Position Various Amino Acids Substrate Activity, HGFA (percent substrate proteolysis/cleavage) (HGFA) [%]	P2 Position Substrate Activity for hepsin (percent substrate cleavage/proteolysis) (hepsin; [1]) [%]	P3 Position Various Amino Acids Substrate Activity, hepsin (percent substrate cleavage/proteolysis) (hepsin) [%]	P4 Position Various Amino Acids Substrate Activity, hepsin (percent substrate proteolysis/cleavage) (hepsin) [%]	P3 Position Substrate Activity for matriptase (percent substrate cleavage/proteolysis) (matriptase; [4]) [%]	P3 Position Substrate Activity for TMPRSS2 (percent substrate cleavage/proteolysis) (TMPRSS2; residue fixed at P3 position of substrate library, best recognized amino acid set to 100%) [%]	P3 Position Substrate Activity for HGFA (percent substrate cleavage/proteolysis) (HGFA; [4]) [%]	P3 Position Substrate Activity for hepsin (percent substrate cleavage/proteolysis) (hepsin; [4]) [%]
D-Asp	0	0	1	0.00	20.28	18.22	0.00	5.37	2.25	0.00	17.18	1.98	–	–	–	–
D-Tyr	0	6	7	0.00	4.49	33.78	0.00	17.32	10.09	0.00	29.94	12.66	–	–	–	–
L-Nle	13	34	34	11.80	38.11	56.06	45.52	19.15	11.76	62.04	24.09	40.93	–	–	–	–
L-Asp	1	2	1	9.72	25.70	7.77	1.21	2.81	1.90	0.33	3.89	0.22	–	–	–	–
D-Thr	0	2	9	0.00	0.00	22.57	0.00	6.45	8.61	0.00	36.69	25.74	–	–	–	–
CC(C)[C@H](N)C(=O)O [L-Val]	8	18	29	28.86	19.38	34.19	8.33	9.51	11.66	51.85	16.77	43.08	–	–	–	–
L-Dap	9	52	16	4.32	–	16.80	1.49	–	13.31	10.01	–	35.65	51.80	43.61	24.27	48.71
D-Pro	0	0	9	0.00	0.00	19.76	0.00	4.96	10.30	0.00	38.88	20.45	–	–	–	–
